Measured values reported in patent publication EP0914370B1, “PROCESS FOR PRODUCING CLOSED CELL THERMOPLASTIC FOAMS CONTAINING HFC-134” (E.I. DU PONT DE NEMOURS AND COMPANY, priority 1996, dated 1998).
Marks after values point to notes of the source that are not given here.

Legend:
[1] = Solubility and solution pressure of blowing agents in polystyrene resin, calculated with the Flory-Huggins equation; format: physicochemical; conditions: for WT% Blowing Agent Dissolves in Resin: atmospheric pressure (14.7 psia, 1 bar)
Source text: Certain aspects of the invention are illustrated by the Figures. The accompanying figures illustrate the suitability of HFC-134 as blowing agent for producing polystyrenic foam bodies, the data presented therein were obtained with the aid of the well-known Flory-Huggins equation (Flory, P.J.: "Principles of Polymer Chemistry"; Cornell University Press, Ithaca, N.Y.), discussed below.
These equilibrium pressures relate to the point in the extrusion process where blowing agent is mixed with resin; foaming cannot occur at these pressures.
The data presented in Figures 3-6 were determined through use of the Flory-Huggins equation for phase equilibria in polymer solutions. This equation uses values for the following parameters [(1) - (4)], which were obtained as follows: (1) liquid densities of the blowing agents, g/cc, were derived by using standard methods, drawing a straight line through the liquid density data (based on National Institute of Standards and Technology, NIST, experimental data; with equations based on the Modified Benedict-Webb-Rubin, MBWR, equation of state) from -50°C to 50°C and calculating the liquid density as a function of temperature. The density (d) equation recites: d=AT+B, wherein A is the slope of the line, B is the constant of the line, and T temperature (°C). The liquid densities are (grams/cubic centimeter, g/cm^3):
(2) The densities of the superheated vapors of the blowing agents, which are tabulated below, were calculated from the known vapor data of their thermodynamic properties (based on National Institute of Standards and Technology, NIST, experimental data; with equations based on the Modified Benedict-Webb-Rubin, MBWR, equation of state).
(3) The activity coefficients for the blowing agents that are tabulated below:
These coefficients were determined by dividing the experimental blowing agent partial pressure by the saturated vapor pressure at that temperature. (4) The interaction parameters, X1, were determined at four temperatures, and are presented graphically as a function of temperature in Figure 2 by means of the following equation and equation constants: X1 = A/T + B [formula] (where T = °K = °C + 273.2)
Such data are presented graphically in Figures 3, 4, 5 and 6. Figures 3-6 are plots of "weight% Blowing Agent Dissolved in Resin vs. Pressure of Solution" as a function of temperature. Representative solubilities of the blowing agents in the given resin at various extrusion process temperatures at atmospheric pressure (14.7 psia, 1 bar), are listed below in Table 1: Table 1

[2] = Solubility and solution pressure of blowing agents in Quantum "Petrothene" grade low density polyethylene, same procedure; format: physicochemical
[3] = low density polyethylene, 25°C, 1 Atm
[4] = low density polyethylene, 180°C, 1 Atm
[5] = low density polyethylene, Extruder Temp 180°C
[6] = polystyrene resin, 25°C (footnote *)

CC(F)(F)F [HFC-143a, 1,1,1-trifluoroethane]
Limiting Solubility (wt % HFC) [1]: 69 wt % HFC
Solubility (wt % HFC) at 1 Atm of HFC Pres. 25°C [1]: 0.04 wt % HFC
Solubility (wt % HFC) at 1 Atm of HFC Pres. Ext Temp [1]: 0.07 wt % HFC
WT% Blowing Agent Dissolves in Resin ([1]; polystyrene resin, 20°C): 0.04 WT%
WT% Blowing Agent Dissolves in Resin ([1]; polystyrene resin, 60°C): 0.08 WT%
WT% Blowing Agent Dissolves in Resin ([1]; polystyrene resin, 100°C): 0.13 WT%
WT% Blowing Agent Dissolves in Resin ([1]; polystyrene resin, 140°C): 0.1 WT%
WT% Blowing Agent Dissolves in Resin ([1]; polystyrene resin, 180°C): 0.07 WT%
WT% Blowing Agent Dissolves in Resin ([1]; polystyrene resin, 200°C): 0.05 WT%

CC(F)F [HFC-152a, 1,1-difluoroethane]
Limiting Solubility (wt % HFC) [1]: 83 wt % HFC
Solubility (wt % HFC) at 1 Atm of HFC Pres. 25°C [1]: 0.76 wt % HFC
Solubility (wt % HFC) at 1 Atm of HFC Pres. Ext Temp [1]: 0.2 wt % HFC
WT% Blowing Agent Dissolves in Resin ([1]; polystyrene resin, 20°C): 0.8 WT%
WT% Blowing Agent Dissolves in Resin ([1]; polystyrene resin, 60°C): 0.5 WT%
WT% Blowing Agent Dissolves in Resin ([1]; polystyrene resin, 100°C): 0.4 WT%
WT% Blowing Agent Dissolves in Resin ([1]; polystyrene resin, 140°C): 0.3 WT%
WT% Blowing Agent Dissolves in Resin ([1]; polystyrene resin, 180°C): 0.2 WT%
WT% Blowing Agent Dissolves in Resin ([1]; polystyrene resin, 200°C): 0.15 WT%

FC(F)(Cl)C(F)(F)Cl [HCFC-114, 1,2-dichloro-1,1,2,2-tetrafluoroethane]
Solubility (wt % HFC) at 1 Atm of HFC Pres. 25°C [2, 3]: 2.01 wt % HFC
Solubility (wt % HFC) at 1 Atm of HFC Pres. Ext Temp [2, 4]: 0.38 wt % HFC
Limiting Solubility (wt % HFC) [2, 5]: 78 wt % HFC

FCC(F)(F)F [HFC-134a, 1,1,1,2-tetrafluoroethane]
Solubility (wt % HFC) at 1 Atm of HFC Pres. 25°C [2, 3]: 0.22 wt % HFC
Solubility (wt % HFC) at 1 Atm of HFC Pres. Ext Temp [2, 4]: 0.14 wt % HFC
Limiting Solubility (wt % HFC) [2, 5]: 74 wt % HFC
WT% Blowing Agent Dissolves in Resin [1, 6]: 0.16* WT%
Solubility (wt % HFC) at 1 Atm of HFC Pres. 25°C ([1]; polystyrene resin, 25°C, 1 Atm): 0.16 wt % HFC
WT% Blowing Agent Dissolves in Resin ([1]; polystyrene resin, 60°C): 0.2 WT%
WT% Blowing Agent Dissolves in Resin ([1]; polystyrene resin, 100°C): 0.19 WT%
WT% Blowing Agent Dissolves in Resin ([1]; polystyrene resin, 140°C): 0.15 WT%
Solubility (wt % HFC) at 1 Atm of HFC Pres. Ext Temp ([1]; polystyrene resin, 180°C, 1 Atm): 0.11 wt % HFC
WT% Blowing Agent Dissolves in Resin ([1]; polystyrene resin, 180°C): 0.1 WT%
WT% Blowing Agent Dissolves in Resin ([1]; polystyrene resin, 200°C): 0.08 WT%
Limiting Solubility (wt % HFC) ([1]; polystyrene resin, Extruder Temp 180°C): 69 wt % HFC

CCF [HFC-161, 1-fluoroethane]
Solubility (wt % HFC) at 1 Atm of HFC Pres. 25°C [2, 3]: 0.22 wt % HFC
Solubility (wt % HFC) at 1 Atm of HFC Pres. Ext Temp [2, 4]: 0.24 wt % HFC
Limiting Solubility (wt % HFC) [2, 5]: 89 wt % HFC

FC(F)C(F)F [HFC-134, 1,1,2,2-tetrafluoroethane]
Limiting Solubility (wt % HFC) [2]: 81 wt % HFC
Solubility (wt % HFC) at 1 Atm of HFC Pres. 25°C [2]: 0.64 wt % HFC
Solubility (wt % HFC) at 1 Atm of HFC Pres. Ext Temp [2]: 0.20 wt % HFC
HFC-134/HFC-134a solubility ratio [1]: about 2/1
Limiting Solubility (wt % HFC) [1]: 81 wt % HFC
Solubility (wt % HFC) at 1 Atm of HFC Pres. 25°C [1]: 0.54 wt % HFC
Solubility (wt % HFC) at 1 Atm of HFC Pres. Ext Temp [1]: 0.2 wt % HFC
WT% Blowing Agent Dissolves in Resin [1, 6]: 0.6* WT%
WT% Blowing Agent Dissolves in Resin ([1]; polystyrene resin, 60°C): 0.5 WT%
WT% Blowing Agent Dissolves in Resin ([1]; polystyrene resin, 100°C): 0.4 WT%
WT% Blowing Agent Dissolves in Resin ([1]; polystyrene resin, 140°C): 0.3 WT%
WT% Blowing Agent Dissolves in Resin ([1]; polystyrene resin, 180°C): 0.2 WT%
WT% Blowing Agent Dissolves in Resin ([1]; polystyrene resin, 200°C): 0.15 WT%
